Data reported in patent US10597391B2, “Urea-containing isoxazole derivatives as FXR agonists and methods of use thereof” (Enanta Pharmaceuticals, Inc., priority 2016, dated 2020).
pEC50: −log10 of the molar value. Read-outs that look alike come from different tables or passages of the source.

Target: T1, human FXR (NR1H4) (Homo sapiens, UniProt Q96RI1)
T1 sequence (Q96RI1 1-486): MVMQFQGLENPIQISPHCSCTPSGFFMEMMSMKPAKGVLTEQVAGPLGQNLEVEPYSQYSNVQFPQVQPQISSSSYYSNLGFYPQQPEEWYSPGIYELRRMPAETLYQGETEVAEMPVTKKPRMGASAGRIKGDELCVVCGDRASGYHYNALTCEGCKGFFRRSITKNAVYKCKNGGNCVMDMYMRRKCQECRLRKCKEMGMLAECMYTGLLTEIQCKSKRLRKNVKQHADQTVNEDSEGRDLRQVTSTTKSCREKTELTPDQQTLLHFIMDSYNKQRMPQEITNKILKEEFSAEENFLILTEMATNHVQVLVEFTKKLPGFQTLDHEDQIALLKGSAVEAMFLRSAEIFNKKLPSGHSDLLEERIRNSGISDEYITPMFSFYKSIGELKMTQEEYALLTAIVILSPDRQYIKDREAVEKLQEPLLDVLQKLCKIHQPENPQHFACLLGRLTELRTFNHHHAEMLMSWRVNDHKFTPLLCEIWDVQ
Test: Human FXR (NR1H4) Assay: Gal4 promoter driven luciferase reporter transactivation in CHO cells (Indigo Bioscience kit IB00601)
Type: cell-based
Details: for pEC50: Human FXR (NR1H4) reporter assay in CHO cells; for Emax: CHO, read-out: Efficacy (%)
Source text: Human FXR (NR1H4) Assay Determination of a ligand mediated Gal4 promoter driven transactivation to quantify ligand binding mediated activation of FXR. FXR Reporter Assay kit purchased from Indigo Bioscience (Catalogue number: IB00601) to determine the potency and efficacy of compounds that can induce FXR activation. The principle application of this reporter assay system is to quantify functional activity of human FXR. The assay utilizes non-human mammalian cells, CHO (Chinese hamster ovary) cells engineered to express human NR1H4 protein (referred to as FXR). Reporter cells also incorporate the cDNA encoding beetle luciferase which catalyzes the substrates and yields photon emission. Luminescence intensity of the reaction is quantified using a plate-reading luminometer, Envision. Reporter Cells include the luciferase reporter gene functionally linked to an FXR responsive promoter. Thus, quantifying changes in luciferase expression in the treated reporter cells provides a sensitive surrogate measure of the changes in FXR activity. […] The assay is according to the manufacturer's instructions. […] Retrieve Reporter Cells from −80° C. storage. Perform a rapid thaw of the frozen cells by transferring a 10 ml volume of 37° C. cell recovery medium into the tube of frozen cells. […] Retrieve the tube of Reporter Cell Suspension from the water bath. […] Dispense 90 μl of cell suspension into each well of the 96-well Assay Plate. Transfer the plate into 37° C. incubator, allowing the cells adherent to the bottom of the well. Dilute compounds in Dilution Plate (DP), and administrate to cells at Assay Plate (AP). […] Cells were incubated for additional 22 hours before luciferase activities were measured. Thirty minutes before intending to quantify FXR activity, remove Detection Substrate and Detection Buffer from the refrigerator and place them in a low-light area so that they may equilibrate to room temperature. Remove the plate's lid and discard all media contents by ejecting it into an appropriate waste container. Gently tap the inverted plate onto a clean absorbent paper towel to remove residual droplets. Cells will remain tightly adhered to well bottoms. Add 100 μl of luciferase detection reagent to each well of the assay plate. Allow the assay plate to rest at room temperature for at least 5 minutes following the addition of LDR. Set the instrument (Envision) to perform a single 5 second “plate shake” prior to reading the first assay well. Read time may be 0.5 second (500 mSec) per well.

[1] = efficacy normalized to CDCA set as 100%

O=C(O)c1cccc(NC(=O)N2C3CCC2CC(OCc2c(-c4ccccc4OC(F)(F)F)noc2C2CC2)C3)c1 (stereo not shown) [Example 229]
pEC50 (potency range, read-out: EC50): 6.00 to 7.00

O=C(O)c1ccc(NC(=O)N2C3CCC2CC(OCc2c(-c4ccccc4OC(F)(F)F)noc2C2CC2)C3)cc1 (stereo not shown) [Example 230]
pEC50 (potency range, read-out: EC50): 7.00 to 8.00

COC(=O)c1ccc(NC(=O)N2C3CCC2CC(OCc2c(-c4ccccc4OC(F)(F)F)noc2C2CC2)C3)c(OC)c1 (stereo not shown) [Example 236]
pEC50 (potency range, read-out: EC50): 7.00 to 8.00

COC(=O)c1ccc(NC(=O)N2C3CCC2CC(OCc2c(-c4ccccc4OC(F)(F)F)noc2C2CC2)C3)c(F)c1 (stereo not shown) [Example 237]
pEC50 (potency range, read-out: EC50): 6.00 to 7.00

COc1cc(C(=O)O)ccc1NC(=O)N1C2CCC1CC(OCc1c(-c3ccccc3OC(F)(F)F)noc1C1CC1)C2 (stereo not shown) [Example 238]
pEC50 (potency range, read-out: EC50): > 8.00

O=C(O)c1ccc(NC(=O)N2C3CCC2CC(OCc2c(-c4ccccc4OC(F)(F)F)noc2C2CC2)C3)c(F)c1 (stereo not shown) [Example 239]
pEC50 (potency range, read-out: EC50): 7.00 to 8.00

O=C(O)c1ccc(NC(=O)N2C3CCC2CC(OCc2c(-c4ccccc4OC(F)(F)F)noc2C2CC2)C3)cc1-c1ccccc1 (stereo not shown) [Example 247]
pEC50 (potency range, read-out: EC50): > 8.00

CS(=O)(=O)NC(=O)c1cccc(NC(=O)N2C3CCC2CC(OCc2c(-c4ccccc4OC(F)(F)F)noc2C2CC2)C3)c1 (stereo not shown) [Example 262]
pEC50 (potency range, read-out: EC50): < 6.00

CC(C)(C)c1ccc(S(=O)(=O)NC(=O)c2cccc(NC(=O)N3C4CCC3CC(OCc3c(-c5ccccc5OC(F)(F)F)noc3C3CC3)C4)c2)cc1 (stereo not shown) [Example 263]
pEC50 (potency range, read-out: EC50): < 6.00

O=C(NS(=O)(=O)C1CC1)c1cccc(NC(=O)N2C3CCC2CC(OCc2c(-c4ccccc4OC(F)(F)F)noc2C2CC2)C3)c1 (stereo not shown) [Example 264]
pEC50 (potency range, read-out: EC50): < 6.00

CN(C)S(=O)(=O)NC(=O)c1cccc(NC(=O)N2C3CCC2CC(OCc2c(-c4ccccc4OC(F)(F)F)noc2C2CC2)C3)c1 (stereo not shown) [Example 265]
pEC50 (potency range, read-out: EC50): 6.00 to 7.00

O=C(N[C@H]1CC[C@H](C(=O)O)CC1)N1C2CCC1CC(OCc1c(-c3ccccc3OC(F)(F)F)noc1C1CC1)C2 (stereo partly shown) [Example 266]
pEC50 (potency range, read-out: EC50): 6.00 to 7.00

O=C(O)c1ccc(NC(=O)N2C3CCC2CC(OCc2c(C4CCC5(CC4)CC5)noc2C2CC2)C3)c(F)c1 (stereo not shown) [Example 285]
pEC50 (potency range, read-out: EC50): 7.00 to 8.00

O=C(O)c1ccc(NC(=O)N2C3CCC2CC(OCc2c(C4CCC5(CC4)CC5)noc2C2CC2)C3)cc1-c1ccccc1 (stereo not shown) [Example 293]
pEC50 (potency range, read-out: EC50): 7.00 to 8.00

COC(=O)c1ccc2c(c1)N(C(=O)N1C3CCC1CC(OCc1c(-c4ccccc4OC(F)(F)F)noc1C1CC1)C3)CC2 (stereo not shown) [Example 589]
Emax: 76% | pEC50 (potency range, read-out: EC50): < 6.00

O=C(O)c1ccc2c(c1)N(C(=O)N1C3CCC1CC(OCc1c(-c4ccccc4OC(F)(F)F)noc1C1CC1)C3)CC2 (stereo not shown) [Example 590]
Emax: 67% | pEC50 (potency range, read-out: EC50): < 6.00

CCOC(=O)c1ccc2c(c1)CCN2C(=O)N1C2CCC1CC(OCc1c(-c3ccccc3OC(F)(F)F)noc1C1CC1)C2 (stereo not shown) [Example 591]
Emax: 166% | pEC50 (potency range, read-out: EC50): < 6.00

O=C(O)c1ccc2c(c1)CCN2C(=O)N1C2CCC1CC(OCc1c(-c3ccccc3OC(F)(F)F)noc1C1CC1)C2 (stereo not shown) [Example 592]
Emax: 227% | pEC50 (potency range, read-out: EC50): < 6.00

CCOC(=O)c1ccc2c(c1)CCCN2C(=O)N1C2CCC1CC(OCc1c(-c3ccccc3OC(F)(F)F)noc1C1CC1)C2 (stereo not shown) [Example 593]
Emax: 40% | pEC50 (potency range, read-out: EC50): < 6.00

O=C(O)c1ccc2c(c1)CCCN2C(=O)N1C2CCC1CC(OCc1c(-c3ccccc3OC(F)(F)F)noc1C1CC1)C2 (stereo not shown) [Example 594]
Emax: 49% | pEC50 (potency range, read-out: EC50): 6.00 to 7.00

CCOC(=O)c1ccc2c(c1)N(C(=O)N1C3CCC1CC(OCc1c(-c4ccccc4OC(F)(F)F)noc1C1CC1)C3)CCC2 (stereo not shown) [Example 595]
Emax: 7% | pEC50 (potency range, read-out: EC50): < 6.00

O=C(O)c1ccc2c(c1)N(C(=O)N1C3CCC1CC(OCc1c(-c4ccccc4OC(F)(F)F)noc1C1CC1)C3)CCC2 (stereo not shown) [Example 596]
Emax: 48% | pEC50 (potency range, read-out: EC50): < 6.00

COC(=O)c1ccc2c(c1)CN(C(=O)N1C3CCC1CC(OCc1c(-c4ccccc4OC(F)(F)F)noc1C1CC1)C3)C2 (stereo not shown) [Example 597]
Emax: 53% | pEC50 (EC50, potency range): 6.00 to 7.00

O=C(O)c1ccc2c(c1)CN(C(=O)N1C3CCC1CC(OCc1c(-c4ccccc4OC(F)(F)F)noc1C1CC1)C3)C2 (stereo not shown) [Example 598]
Emax: 105% | pEC50 (potency range, read-out: EC50): 7.00 to 8.00

O=C(O)c1ccc(NC(=O)N2C3CCC2CC(OCc2c(-c4c(Cl)cccc4Cl)noc2C2CC2)C3)c(F)c1 (stereo not shown) [Example 692]
Emax [1]: 156% | pEC50 (potency range, read-out: EC50): > 8.00

CC1(S(=O)(=O)NC(=O)c2ccc(NC(=O)N3C4CCC3CC(OCc3c(-c5c(Cl)cccc5Cl)noc3C3CC3)C4)c(F)c2)CC1 (stereo not shown) [Example 693]
Emax [1]: 203% | pEC50 (potency range, read-out: EC50): 6.00 to 7.00

C[C@@H](NC(=O)N1C2CCC1CC(OCc1c(-c3c(Cl)cccc3Cl)noc1C1CC1)C2)c1ccccc1 (stereo partly shown) [Example 694]
Emax: 124% | pEC50 (potency range, read-out: EC50): 6.00 to 7.00

CN(C)S(=O)(=O)NC(=O)c1ccc(NC(=O)N2C3CCC2CC(OCc2c(-c4c(Cl)cccc4Cl)noc2C2CC2)C3)cc1 (stereo not shown) [Example 695]
Emax [1]: 140% | pEC50 (potency range, read-out: EC50): 7.00 to 8.00

O=C(Nc1ccccc1)N1C2CCC1CC(OCc1c(-c3c(Cl)cccc3Cl)noc1C1CC1)C2 (stereo not shown) [Example 696]
Emax [1]: 246% | pEC50 (potency range, read-out: EC50): > 8.00

CC(C)(C)c1ccc(NC(=O)N2C3CCC2CC(OCc2c(-c4c(Cl)cccc4Cl)noc2C2CC2)C3)cc1 (stereo not shown) [Example 697]
Emax [1]: 174% | pEC50 (potency range, read-out: EC50): 6.00 to 7.00

O=C(Nc1ccc(F)cc1)N1C2CCC1CC(OCc1c(-c3c(Cl)cccc3Cl)noc1C1CC1)C2 (stereo not shown) [Example 698]
Emax [1]: 182% | pEC50 (potency range, read-out: EC50): 7.00 to 8.00

O=C(Nc1ccc(F)c(F)c1)N1C2CCC1CC(OCc1c(-c3c(Cl)cccc3Cl)noc1C1CC1)C2 (stereo not shown) [Example 699]
Emax [1]: 232% | pEC50 (potency range, read-out: EC50): 7.00 to 8.00

O=C(Nc1cc(F)cc(F)c1)N1C2CCC1CC(OCc1c(-c3c(Cl)cccc3Cl)noc1C1CC1)C2 (stereo not shown) [Example 700]
Emax [1]: 292% | pEC50 (potency range, read-out: EC50): > 8.00

O=C(Nc1ccc(-c2nnn[nH]2)cc1)N1C2CCC1CC(OCc1c(-c3c(Cl)cccc3Cl)noc1C1CC1)C2 (stereo not shown) [Example 701]
Emax [1]: 306% | pEC50 (potency range, read-out: EC50): 6.00 to 7.00

O=C(Nc1ccc(F)c(C(F)(F)F)c1)N1C2CCC1CC(OCc1c(-c3c(Cl)cccc3Cl)noc1C1CC1)C2 (stereo not shown) [Example 702]
Emax [1]: 258% | pEC50 (potency range, read-out: EC50): > 8.00

N#Cc1cncc(NC(=O)N2C3CCC2CC(OCc2c(-c4c(Cl)cccc4Cl)noc2C2CC2)C3)c1 (stereo not shown) [Example 703]
Emax [1]: 170% | pEC50 (potency range, read-out: EC50): > 8.00

N#Cc1cc(F)cc(NC(=O)N2C3CCC2CC(OCc2c(-c4c(Cl)cccc4Cl)noc2C2CC2)C3)c1 (stereo not shown) [Example 704]
Emax [1]: 157% | pEC50 (potency range, read-out: EC50): > 8.00

C[C@H](NC(=O)N1C2CCC1CC(OCc1c(-c3c(Cl)cccc3Cl)noc1C1CC1)C2)c1ccccc1 (stereo partly shown) [Example 705]
Emax [1]: 242% | pEC50 (potency range, read-out: EC50): > 8.00

O=C(Nc1cccc(-c2ccc(C(F)(F)F)nc2)c1)N1C2CCC1CC(OCc1c(-c3c(Cl)cccc3Cl)noc1C1CC1)C2 (stereo not shown) [Example 706]
Emax [1]: 207% | pEC50 (potency range, read-out: EC50): 7.00 to 8.00

O=C(c1ccc(-c2cccc(NC(=O)N3C4CCC3CC(OCc3c(-c5c(Cl)cccc5Cl)noc3C3CC3)C4)c2)cc1)N1CCOCC1 (stereo not shown) [Example 707]
Emax [1]: 220% | pEC50 (potency range, read-out: EC50): 7.00 to 8.00

O=C(Nc1cccc(-c2cnn(C3CCOCC3)c2)c1)N1C2CCC1CC(OCc1c(-c3c(Cl)cccc3Cl)noc1C1CC1)C2 (stereo not shown) [Example 708]
Emax [1]: 209% | pEC50 (potency range, read-out: EC50): > 8.00

COC(=O)c1ccc(NC(=O)N2C3CCC2CC(OCc2c(-c4c(Cl)cccc4Cl)noc2C2CC2)C3)c(C(F)(F)F)c1 (stereo not shown) [Example 709]
Emax [1]: 119% | pEC50 (potency range, read-out: EC50): 6.00 to 7.00

O=C(O)c1ccc(NC(=O)N2C3CCC2CC(OCc2c(-c4c(Cl)cccc4Cl)noc2C2CC2)C3)c(C(F)(F)F)c1 (stereo not shown) [Example 710]
Emax [1]: 170% | pEC50 (potency range, read-out: EC50): 7.00 to 8.00

O=C(Nc1cccc(C2=CCCCC2)c1)N1C2CCC1CC(OCc1c(-c3c(Cl)cccc3Cl)noc1C1CC1)C2 (stereo not shown) [Example 711]
Emax [1]: 157% | pEC50 (potency range, read-out: EC50): > 8.00

O=C(Nc1cccc(C2CCCCC2)c1)N1C2CCC1CC(OCc1c(-c3c(Cl)cccc3Cl)noc1C1CC1)C2 (stereo not shown) [Example 712]
Emax [1]: 144% | pEC50 (potency range, read-out: EC50): 7.00 to 8.00
